{"source": "patent US12440496B2", "about": "“Natriuretic peptide receptor a agonists useful for the treatment of cardiometabolic diseases, kidney disease and diabetes” (Merck Sharp & Dohme LLC, priority 2019, dated 2025)", "data": [{"biological_target": "T1, hNPRA (Homo sapiens, UniProt P16066)", "T1 construct": "expressed in transfected cells", "T1 sequence (P16066 33-1061)": "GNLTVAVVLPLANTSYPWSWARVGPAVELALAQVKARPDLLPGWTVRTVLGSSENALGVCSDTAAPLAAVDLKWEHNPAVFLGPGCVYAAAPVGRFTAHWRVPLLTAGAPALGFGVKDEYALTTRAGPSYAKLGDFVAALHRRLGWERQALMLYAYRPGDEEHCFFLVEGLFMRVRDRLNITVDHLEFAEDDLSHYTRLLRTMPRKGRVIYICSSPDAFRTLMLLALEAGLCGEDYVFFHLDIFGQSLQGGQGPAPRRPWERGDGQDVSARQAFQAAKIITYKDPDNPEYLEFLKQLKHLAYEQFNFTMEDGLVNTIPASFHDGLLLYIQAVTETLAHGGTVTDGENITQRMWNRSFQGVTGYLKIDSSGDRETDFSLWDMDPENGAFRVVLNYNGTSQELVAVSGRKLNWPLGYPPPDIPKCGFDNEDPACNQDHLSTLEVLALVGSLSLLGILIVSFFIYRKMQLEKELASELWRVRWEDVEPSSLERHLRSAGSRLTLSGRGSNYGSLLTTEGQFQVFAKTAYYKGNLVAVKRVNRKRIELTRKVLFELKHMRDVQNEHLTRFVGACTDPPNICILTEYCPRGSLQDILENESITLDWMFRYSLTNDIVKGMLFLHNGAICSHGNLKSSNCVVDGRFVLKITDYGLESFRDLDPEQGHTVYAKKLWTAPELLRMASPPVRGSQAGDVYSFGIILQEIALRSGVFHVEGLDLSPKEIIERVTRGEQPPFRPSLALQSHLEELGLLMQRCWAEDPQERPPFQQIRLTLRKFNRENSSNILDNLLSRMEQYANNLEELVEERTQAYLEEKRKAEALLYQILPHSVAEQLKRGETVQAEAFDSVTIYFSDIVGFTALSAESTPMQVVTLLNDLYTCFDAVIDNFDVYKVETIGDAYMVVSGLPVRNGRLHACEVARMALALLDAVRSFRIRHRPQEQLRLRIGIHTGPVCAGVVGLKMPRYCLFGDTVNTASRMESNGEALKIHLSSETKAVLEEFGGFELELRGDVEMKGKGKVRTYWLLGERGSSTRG", "assay": "NPRA Functional Cell Assay (cGMP HTRF, NPRA HEK JumpIn stable cells)", "format": "cell-based", "settings": "cGMP production, 1 hour at 37° C., 10-point dose response", "method_in_brief": "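cGMP HTRF read-out after 1 hour compound treatment at 37° C. of human NPRA-expressing HEK JumpIn cells, 1500 cells/well, in buffer with phosphodiesterase inhibitors IBMX and RO20 (100 uM each). Signal converted to [cGMP] by calibration curve; EC50s fitted by 4-parameter logistic; 50 nM h-ANP as positive response.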", "units": {"EC50": "µM"}, "values": [{"smiles": "CC(C)(C)[C@H]1CCc2nc3sc(C(=O)N[C@H](CCN4CCC[C@H]4CO)c4ccccc4)cc3cc2C1", "note": "[Example 257, (6S)-6-tert-butyl-N-{(1R)-3-[(2S)-2-(hydroxymethyl)pyrrolidin-1-yl]-1-phenylpropyl}-5,6,7,8-tetrahydrothieno[2,3-b]quinoline-2-carboxamide]", "EC50": 0.886}, {"smiles": "CC(C)(C)[C@H]1CCc2nc3sc(C(=O)N[C@H](CCN4CCC(C(=O)O)CC4)c4ccccc4)cc3cc2C1", "note": "[Example 258, 1-[(3R)-3-({[(6S)-6-tert-butyl-5,6,7,8-tetrahydrothieno[2,3-b]quinolin-2-yl]carbonyl}amino)-3-phenylpropyl]piperidine-4-carboxylic acid]", "EC50": 2.08}, {"smiles": "CC(C)(C)[C@H]1CCc2nc3sc(C(=O)N[C@H](CCN4CCC(CO)C4)c4ccccc4)cc3cc2C1", "note": "(stereo partly drawn) [Example 259, (6S)-6-tert-butyl-N-{(1R)-3-[3-(hydroxymethyl)pyrrolidin-1-yl]-1-phenylpropyl}-5,6,7,8-tetrahydrothieno[2,3-b]quinoline-2-carboxamide]", "EC50": 1.82}, {"smiles": "CC(C)(C)[C@H]1CCc2nc3sc(C(=O)N[C@H](CCN[C@H]4C[C@H](O)C4)c4ccccc4)cc3cc2C1", "note": "[Example 260, (6S)-6-tert-butyl-N-{(1R)-3-[(trans-3-hydroxycyclobutyl)amino]-1-phenylpropyl}-5,6,7,8-tetrahydrothieno[2,3-b]quinoline-2-carboxamide]", "EC50": 2}, {"smiles": "CC(C)(C)[C@H]1CCc2nc3sc(C(=O)N[C@H](CCN4CCC(O)C4)c4ccccc4)cc3cc2C1", "note": "(stereo partly drawn) [Example 261, (6S)-6-tert-butyl-N-[(1R)-3-(3-hydroxypyrrolidin-1-yl)-1-phenylpropyl]-5,6,7,8-tetrahydrothieno[2,3-b]quinoline-2-carboxamide]", "EC50": 6.32}, {"smiles": "CC(C)(C)[C@H]1CCc2nc3sc(C(=O)N[C@H](CCN4CCC[C@@H]4CO)c4ccccc4)cc3cc2C1", "note": "[Example 262, (6S)-6-tert-butyl-N-{(1R)-3-[(2R)-2-(hydroxymethyl)pyrrolidin-1-yl]-1-phenylpropyl}-5,6,7,8-tetrahydrothieno[2,3-b]quinoline-2-carboxamide]", "EC50": 6.32}, {"smiles": "CC(C)(C)[C@H]1CCc2nc3sc(C(=O)N[C@H](CCN4CCC(O)CC4)c4ccc(-c5ccnnc5)nc4)nc3cc2C1", "note": "[Example 263, (S)-7-(tert-butyl)-N-((R)-3-(4-hydroxypiperidin-1-yl)-1-(6-(pyridazin-4-yl)pyridin-3-yl)propyl)-5,6,7,8-tetrahydrothiazolo[5,4-b]quinoline-2-carboxamide]", "EC50": 0.129}, {"smiles": "CC1([C@H]2CCc3nc4sc(C(=O)N[C@H](CCN5CCC(O)CC5)c5ccc(-c6ccnnc6)nc5)nc4cc3C2)CC1", "note": "[Example 264, (S)-N-((R)-3-(4-hydroxypiperidin-1-yl)-1-(6-(pyridazin-4-yl)pyridin-3-yl)propyl)-7-(1-methylcyclopropyl)-5,6,7,8-tetrahydrothiazolo[5,4-b]quinoline-2-carboxamide]", "EC50": 0.113}, {"smiles": "CC(C)[C@]1(F)CCc2nc3sc(C(=O)N[C@H](CCN4CCC(O)CC4)c4ccc(-c5ccnnc5)nc4)nc3cc2C1", "note": "[Example 265, (S)-7-fluoro-N-((R)-3-(4-hydroxypiperidin-1-yl)-1-(6-(pyridazin-4-yl)pyridin-3-yl)propyl)-7-isopropyl-5,6,7,8-tetrahydrothiazolo[5,4-b]quinoline-2-carboxamide]", "EC50": 0.248}, {"smiles": "CC(C)(C)[C@H]1CCc2nc3sc(C(=O)N[C@H](CCN4CCC(O)CC4)c4cnc(-c5ccnnc5)c(F)c4)nc3cc2C1", "note": "[Example 266, (S)-7-(tert-butyl)-N-((R)-1-(5-fluoro-6-(pyridazin-4-yl)pyridin-3-yl)-3-(4-hydroxypiperidin-1-yl)propyl)-5,6,7,8-tetrahydrothiazolo[5,4-b]quinoline-2-carboxamide]", "EC50": 0.142}, {"smiles": "CC1([C@H]2CCc3nc4sc(C(=O)N[C@H](CCN5CCC(O)CC5)c5ccc(-c6cn[nH]c6)cc5)nc4cc3C2)CC1", "note": "[Example 267, (S)-N-((R)-1-(4-(1H-pyrazol-4-yl)phenyl)-3-(4-hydroxypiperidin-1-yl)propyl)-7-(1-methylcyclopropyl)-5,6,7,8-tetrahydrothiazolo[5,4-b]quinoline-2-carboxamide]", "EC50": 0.655}, {"smiles": "O=C(N[C@H](CCN1CCC(O)CC1)c1ccc(-c2cn[nH]c2)cc1)c1nc2cc3c(nc2s1)CC[C@H](C1(C(F)(F)F)CC1)C3", "note": "[Example 268, (S)-N-((R)-1-(4-(1H-pyrazol-4-yl)phenyl)-3-(4-hydroxypiperidin-1-yl)propyl)-7-(1-(trifluoromethyl)cyclopropyl)-5,6,7,8-tetrahydrothiazolo[5,4-b]quinoline-2-carboxamide]", "EC50": 2.03}, {"smiles": "COC(=O)C1CCN(CC[C@@H](NC(=O)c2nc3cc4c(nc3s2)CC[C@@](F)(C(C)C)C4)c2ccc(-c3ccnnc3)nc2)CC1", "note": "[Example 269, methyl 1-((R)-3-((S)-7-fluoro-7-isopropyl-5,6,7,8-tetrahydrothiazolo[5,4-b]quinoline-2-carboxamido)-3-(6-(pyridazin-4-yl)pyridin-3-yl)propyl)piperidine-4-carboxylate]", "EC50": 1.85}, {"smiles": "CC(C)[C@]1(F)CCc2nc3sc(C(=O)N[C@H](CCN4CCC(C(=O)O)CC4)c4ccc(-c5ccnnc5)nc4)nc3cc2C1", "note": "[Example 270, 1-((R)-3-((S)-7-fluoro-7-isopropyl-5,6,7,8-tetrahydrothiazolo[5,4-b]quinoline-2-carboxamido)-3-(6-(pyridazin-4-yl)pyridin-3-yl)propyl)piperidine-4-carboxylic acid]", "EC50": 1.21}, {"smiles": "CC(C)(C)[C@@H]1CCc2nc3sc(C(=O)N[C@H](CCN4CCC(c5nn[nH]n5)CC4)c4ccc(-c5cnc(O)c(F)c5)cc4)nc3cc2C1", "note": "[Example 271, (R)-N-((R)-3-(4-(2H-tetrazol-5-yl)piperidin-1-yl)-1-(4-(5-fluoro-6-hydroxypyridin-3-yl)phenyl)propyl)-7-(tert-butyl)-5,6,7,8-tetrahydrothiazolo[5,4-b]quinoline-2-carboxamide]", "EC50": 1.1}, {"smiles": "CC(C)(C)[C@H]1CCc2nc3sc(C(=O)NC(CCN4CCCC4)c4ccncc4)nc3cc2C1", "note": "(stereo partly drawn) [Example 272, (7S)-7-(tert-butyl)-N-(1-(pyridin-4-yl)-3-(pyrrolidin-1-yl)propyl)-5,6,7,8-tetrahydrothiazolo[5,4-b]quinoline-2-carboxamide]", "EC50": 0.94}, {"smiles": "CC(C)(C)[C@H]1CCc2nc3sc(C(=O)N[C@H](CCN4CCC(O)CC4)c4ccc(N5CCOCS5(=O)=O)nc4)nc3cc2C1", "note": "[Example 273, (S)-7-(tert-butyl)-N-((R)-1-(6-(3,3-dioxido-1,3,4-oxathiazinan-4-yl)pyridin-3-yl)-3-(4-hydroxypiperidin-1-yl)propyl)-5,6,7,8-tetrahydrothiazolo[5,4-b]quinoline-2-carboxamide]", "EC50": 0.182}]}]}
